Measured values as given in US9067871B2, “Aminotetraline derivatives, pharmaceutical compositions containing them, and their use in therapy” (ABBVIE DEUTSCHLAND GMBH & CO KG, priority 2009, dated 2015).
Where a name gives a salt, the structure may show the parent alone. Read-outs that look alike come from different tables or passages of the source.

Tests used:
[1] = molecular target: human GlyT1c (Homo sapiens (Human), UniProt P48067); test: [3H]-Glycine uptake into recombinant CHO cells expressing human GlyT1; format: cell-based
Chain of human GlyT1c (P48067 whole entry): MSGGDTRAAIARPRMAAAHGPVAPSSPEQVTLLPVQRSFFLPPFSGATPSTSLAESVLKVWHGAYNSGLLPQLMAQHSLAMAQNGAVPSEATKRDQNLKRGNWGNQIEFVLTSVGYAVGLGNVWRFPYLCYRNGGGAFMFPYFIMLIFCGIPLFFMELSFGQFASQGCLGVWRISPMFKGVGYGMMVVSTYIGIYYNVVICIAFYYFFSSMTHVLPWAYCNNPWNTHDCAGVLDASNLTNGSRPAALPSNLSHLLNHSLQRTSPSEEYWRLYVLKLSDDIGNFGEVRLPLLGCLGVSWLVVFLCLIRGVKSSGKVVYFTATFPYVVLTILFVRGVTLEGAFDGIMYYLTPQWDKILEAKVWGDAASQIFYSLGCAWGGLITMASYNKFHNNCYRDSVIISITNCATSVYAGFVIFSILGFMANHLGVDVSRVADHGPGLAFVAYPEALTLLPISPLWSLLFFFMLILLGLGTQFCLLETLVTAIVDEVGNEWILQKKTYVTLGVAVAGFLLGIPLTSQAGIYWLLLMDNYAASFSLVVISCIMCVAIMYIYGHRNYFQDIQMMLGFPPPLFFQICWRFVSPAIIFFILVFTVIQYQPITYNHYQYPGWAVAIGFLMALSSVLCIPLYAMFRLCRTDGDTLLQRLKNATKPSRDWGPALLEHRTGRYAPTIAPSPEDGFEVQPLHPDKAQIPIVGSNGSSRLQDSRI
Description: 1. [^3H]-Glycine uptake into recombinant CHO cells expressing human GlyT1: Human GlyT1c expressing recombinant hGlyT1c—5_CHO cells were plated at 20,000 cells per well in 96 well Cytostar-T scintillation microplates (Amersham Biosciences) and cultured to sub-confluency for 24 h. […] 80 μl HBSS buffer were added, followed by 10 μl inhibitor or vehicle (10% DMSO) and 10 μl [^3H]-glycine (TRK71, Amersham Biosciences) to a final concentration of 200 nM for initiation of glycine uptake. The plates were placed in a Wallac Microbeta (PerkinElmer) and continuously counted by solid phase scintillation spectrometry during up to 3 hours. Nonspecific uptake was determined in the presence of 10 μM Org24598.

[2] = molecular target: human GlyT1c transporter (Homo sapiens (Human), UniProt P48067); test: Radioligand binding assay using recombinant CHO cell membranes expressing human GlyT1; details: read-out: radioligand binding Kiapp
Chain of human GlyT1c transporter (P48067 whole entry): as above
Text: 2. Radioligand binding assays using recombinant CHO cell membranes expressing human GlyT1: […]

[3] = hGlyT1c_5_CHO cells, 200 nM [3H]-glycine
[4] = human GlyT1c-expressing CHO cell membranes

| IC50 [1, 3] | Ki [2, 4] | Compound | IC50 [1] | Ki [2] |
| --- | --- | --- | --- | --- |
| ≤ 1000 µM | ≤ 100 µM | CCOC(=O)NC1CCc2ccc(OCCNS(=O)(=O)c3ccc(Cl)s3)cc2C1Cc1cccc(Cl)c1 (stereo not shown) [Example 51, {1-(3-Chloro-benzyl)-7-[2-(5-chloro-thiophene-2-sulfonylamino)-ethoxy]-1,2,3,4-tetrahydronaphthalen-2-yl}-carbamic acid ethyl ester] | – | – |
| ≤ 10 µM | ≤ 10 µM | CCOC(=O)NC1CCc2ccc(OCCNS(=O)(=O)c3cnc(C)[nH]3)cc2C1Cc1cccc(Cl)c1 (stereo not shown) [Example 52, {1-(3-Chloro-benzyl)-7-[2-(2-methyl-3H-imidazole-4-sulfonylamino)-ethoxy]-1,2,3,4-tetrahydro-naphthalen-2-yl}-carbamic acid ethyl ester] | – | – |
| ≤ 1000 µM | ≤ 10 µM | CCOC(=O)NC1CCc2ccc(OCCNS(=O)(=O)c3ccc(C)s3)cc2C1Cc1cccc(Cl)c1 (stereo not shown) [Example 53, {1-(3-Chloro-benzyl)-7-[2-(5-methyl-thiophene-2-sulfonylamino)-ethoxy]-1,2,3,4-tetrahydro-naphthalen-2-yl}-carbamic acid ethyl ester] | – | – |
| ≥ 100 µM | ≤ 10 µM | CCOC(=O)NC1CCc2ccc(OCCNS(=O)(=O)c3cc(C)cs3)cc2C1Cc1cccc(Cl)c1 (stereo not shown) [Example 54, {1-(3-Chloro-benzyl)-7-[2-(4-methyl-thiophene-2-sulfonylamino)-ethoxy]-1,2,3,4-tetrahydro-naphthalen-2-yl}-carbamic acid ethyl ester] | – | – |
| ≥ 100 µM | ≤ 10 µM | CCOC(=O)NC1CCc2ccc(OCCNS(=O)(=O)c3cc(C)sc3C)cc2C1Cc1cccc(Cl)c1 (stereo not shown) [Example 60, {1-(3-Chloro-benzyl)-7-[2-(2,5-dimethyl-thiophene-3-sulfonylamino)-ethoxy]-1,2,3,4-tetrahydro-naphthalen-2-yl}-carbamic acid ethyl ester] | – | – |

Second part, the compound before the results:

| Compound | IC50 [1, 3] | Ki [2, 4] | IC50 [1] | Ki [2] |
| --- | --- | --- | --- | --- |
| CCCS(=O)(=O)NCCOc1ccc2c(c1)C(Cc1cccc(Cl)c1)C(N)CC2 (stereo not shown) [Example 55, Propane-1-sulfonic acid {2-[7-amino-8-(3-chloro-benzyl)-5,6,7,8-tetrahydro-naphthalen-2-yloxy]-ethyl}-amide hydrochloride] | – | – | ≤ 0.1 µM | ≤ 0.01 µM |
| NC1CCc2ccc(OCCNS(=O)(=O)c3cccs3)cc2C1Cc1cccc(Cl)c1 (stereo not shown) [Example 56, Thiophene-2-sulfonic acid {2-[7-amino-8-(3-chloro-benzyl)-5,6,7,8-tetrahydro-naphthalen-2-yloxy]-ethyl}-amide] | ≤ 1 µM | ≤ 0.1 µM | – | – |
| Cc1nc(C)c(S(=O)(=O)NCCOc2ccc3c(c2)C(Cc2cccc(Cl)c2)C(N)CC3)s1 (stereo not shown) [Example 57, 2,4-Dimethyl-thiazole-5-sulfonic acid {2-[7-amino-8-(3-chloro-benzyl)-5,6,7,8-tetrahydronaphthalen-2-yloxy]-ethyl}-amide] | ≤ 10 µM | ≤ 1 µM | – | – |
| Cc1ncc(S(=O)(=O)NCCOc2ccc3c(c2)C(Cc2cccc(Cl)c2)C(N)CC3)[nH]1 (stereo not shown) [Example 58, 2-Methyl-3H-imidazole-4-sulfonic acid {2-[7-amino-8-(3-chloro-benzyl)-5,6,7,8-tetrahydronaphthalen-2-yloxy]-ethyl}-amide] | ≤ 10 µM | ≤ 1 µM | – | – |
| NC1CCc2ccc(OCCNS(=O)(=O)c3ccc(Cl)s3)cc2C1Cc1cccc(Cl)c1 (stereo not shown) [Example 59, 5-Chloro-thiophene-2-sulfonic acid {2-[7-amino-8-(3-chloro-benzyl)-5,6,7,8-tetrahydronaphthalen-2-yloxy]-ethyl}-amide] | ≤ 10 µM | ≤ 1 µM | – | – |
| CCOC(=O)NC1CCc2ccc(OCCNS(=O)(=O)c3cnn(CC)c3)cc2C1Cc1cccc(Cl)c1 (stereo not shown) [Example 61, {1-(3-Chloro-benzyl)-7-[2-(1-ethyl-1H-pyrazole-4-sulfonylamino)-ethoxy]-1,2,3,4-tetrahydro-naphthalen-2-yl}-carbamic acid ethyl ester] | ≤ 1000 µM | ≤ 10 µM | – | – |
